Source: ChEMBL document CHEMBL1201862, “PubChem BioAssay data set” (2004)
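48-hour exposure; five concentrations; linearly interpolated endpoints. Here, GI50 denotes the concentration required for 50% inhibition of growth.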 Activity calls are given as the source filed them. Rule as the data show it: active = GI50 up to about 1.1 µM and inactive = higher.

Tests used:
Assay in all cases: NCI anticancer screen, dose series, 48 h
CAKI-1 = test system: CAKI-1
HCC 2998 = test system: HCC 2998
HCT-15 = test system: HCT-15
Hs-578T = test system: Hs-578T
IGROV-1 = test system: IGROV-1
K562 = test system: K562
KM12 = test system: KM12
NCI-H460 = test system: NCI-H460
NCI-H522 = test system: NCI-H522
NCI/ADR-RES = test system: NCI/ADR-RES
OVCAR-4 = test system: OVCAR-4
RPMI-8226 = test system: RPMI-8226
SF-295 = test system: SF-295
SK-MEL-5 = test system: SK-MEL-5
T47D = test system: T47D
TK-10 = test system: TK-10
UACC-62 = test system: UACC-62
A498 = test system: A498
HOP-92 = test system: HOP-92
SF-539 = test system: SF-539

| SMILES | GI50 (CAKI-1) | GI50 (HCC 2998) | GI50 (HCT-15) | GI50 (Hs-578T) | GI50 (IGROV-1) | GI50 (K562) | GI50 (KM12) | GI50 (NCI-H460) | GI50 (NCI-H522) | GI50 (NCI/ADR-RES) | GI50 (OVCAR-4) | GI50 (RPMI-8226) | GI50 (SF-295) | GI50 (SK-MEL-5) | GI50 (T47D) | GI50 (TK-10) | GI50 (UACC-62) | GI50 (A498) | GI50 (HOP-92) | GI50 (SF-539) |
| --- | --- | --- | --- | --- | --- | --- | --- | --- | --- | --- | --- | --- | --- | --- | --- | --- | --- | --- | --- | --- |
| Cn1c(NN)nc(-c2ccc([N+](=O)[O-])cc2)c(C#N)c1=O | 26.2 µM (inactive) | 13.7 µM (inactive) | 16.4 µM | 14.5 µM (inactive) | 18.5 µM (inactive) | 38.2 µM (inactive) | 16.3 µM (inactive) | 17.3 µM (inactive) | 16.4 µM (inactive) | 31 µM (inactive) | 15.6 µM (inactive) | 29.1 µM (inactive) | 16.1 µM (inactive) | 4.25 µM (inactive) | 15.8 µM (inactive) | 14.3 µM (inactive) | 15.6 µM (inactive) |  |  |  |
| Cc1ccc2c3c1O[C@H]1c4nc5ccccc5cc4C[C@@]4(O)[C@@H](C2)N(CC2CC2)CC[C@]314 | 13.2 µM (inactive) |  | 0.873 µM | 8.69 µM (inactive) | 17.5 µM (inactive) | 3.31 µM (inactive) | 11.1 µM (inactive) | 20 µM (inactive) | 13.7 µM (inactive) | 6.44 µM (inactive) | 13.4 µM (inactive) | 4.63 µM (inactive) | 7.64 µM (inactive) | 7.18 µM (inactive) | 15.8 µM (inactive) | 29.6 µM (inactive) | 9.82 µM (inactive) | 16.5 µM (inactive) | 19.9 µM (inactive) | 4.68 µM (inactive) |
| O=C(COc1cc(=O)oc2ccccc12)c1ccccc1 | 4.69 µM (inactive) | > 100 µM (inactive) | > 100 µM | 24.9 µM (inactive) | 26.9 µM (inactive) | > 100 µM (inactive) | 37.9 µM (inactive) | > 100 µM (inactive) | 32.4 µM (inactive) |  | 29.6 µM (inactive) | > 100 µM (inactive) | 29.1 µM (inactive) | 37.7 µM (inactive) | 25.4 µM (inactive) | > 100 µM (inactive) | 16.7 µM (inactive) | 60.7 µM (inactive) | 16.7 µM (inactive) | 21.5 µM (inactive) |
| O=C(/C=C/c1ccc([N+](=O)[O-])cc1)c1nc2ccccc2[nH]1 | 4.23 µM (inactive) |  | 33 µM | > 45.8 µM (inactive) | 1.68 µM (inactive) | 3.66 µM (inactive) | 29.9 µM (inactive) | 11.4 µM (inactive) | 32.9 µM (inactive) | > 48.2 µM (inactive) | > 66.1 µM (inactive) | 5.73 µM (inactive) | > 100 µM (inactive) | 52.2 µM (inactive) | 29.2 µM (inactive) | 3.57 µM (inactive) | 5.89 µM (inactive) | 1.73 µM (inactive) | 45.5 µM (inactive) | 26.9 µM (inactive) |
| COc1ccc(NC2CC(C)N(C(=O)c3ccccc3)O2)cc1 (centres undefined) | > 10 µM (inactive) | > 10 µM (inactive) | > 10 µM | > 10 µM (inactive) | > 10 µM (inactive) | > 10 µM (inactive) |  | > 10 µM (inactive) | > 10 µM (inactive) | > 10 µM (inactive) | > 10 µM (inactive) | > 10 µM (inactive) | > 10 µM (inactive) | > 10 µM (inactive) | > 10 µM (inactive) | > 10 µM (inactive) |  |  |  | > 10 µM (inactive) |
| COc1cc(C2c3[nH]c4ccccc4c3C[C@H]3COC(=O)N23)cc(OC)c1OC (some centres undefined) | 0.885 µM (active) | 0.131 µM (active) | 0.0471 µM | 0.0219 µM (active) |  | 0.0349 µM (active) | 0.0552 µM (active) | 0.055 µM (active) | 0.015 µM (active) |  | 1.55 µM (inactive) | 0.0676 µM (active) | 0.0262 µM (active) | 0.0266 µM (active) | > 10 µM (inactive) | 5.36 µM (inactive) | 0.0348 µM (active) | 0.0745 µM (active) | 0.92 µM (active) | 0.035 µM (active) |
| C[C@]12CCC(O)CC1=CC[C@@H]1[C@@H]2CC[C@]2(C)C(O)[C@H](n3ccnc3)C[C@@H]12 (some centres undefined) | > 100 µM (inactive) |  | 69.2 µM | > 100 µM (inactive) | > 100 µM (inactive) | 12 µM (inactive) | 56.2 µM (inactive) | 24.8 µM (inactive) | 58.6 µM (inactive) | > 100 µM (inactive) | > 100 µM (inactive) | 22.4 µM (inactive) | 52 µM (inactive) | 28.1 µM (inactive) |  | > 100 µM (inactive) | 77.1 µM (inactive) | > 100 µM (inactive) | 20.2 µM (inactive) | 64.1 µM (inactive) |
| COc1ccc(/C=C/C(=O)c2ccc(Br)cc2)cc1 | > 100 µM (inactive) | > 100 µM (inactive) | > 100 µM | 64.7 µM (inactive) | > 100 µM (inactive) | > 100 µM (inactive) | > 100 µM (inactive) | > 100 µM (inactive) |  | 52 µM (inactive) | > 100 µM (inactive) | 57 µM (inactive) | > 100 µM (inactive) | > 100 µM (inactive) | 42.4 µM (inactive) | > 100 µM (inactive) | > 100 µM (inactive) | > 100 µM (inactive) |  | > 100 µM (inactive) |
| CC(C)(C)OC(=O)C1/C(=C/CO)CN1C(=O)OC(C)(C)C (centres undefined) | > 100 µM (inactive) | > 100 µM (inactive) | > 100 µM | > 100 µM (inactive) | > 100 µM (inactive) | > 100 µM (inactive) |  | > 100 µM (inactive) |  | > 100 µM (inactive) | 63.7 µM (inactive) | > 100 µM (inactive) | > 100 µM (inactive) | > 100 µM (inactive) |  | > 100 µM (inactive) | > 100 µM (inactive) | > 100 µM (inactive) | > 100 µM (inactive) | > 100 µM (inactive) |
| CC(O)=C1C(=O)CCC1=O | > 100 µM (inactive) | > 100 µM (inactive) |  | > 100 µM (inactive) | > 100 µM (inactive) | > 100 µM (inactive) | > 100 µM (inactive) | > 100 µM (inactive) | > 100 µM (inactive) | > 100 µM (inactive) | > 100 µM (inactive) | > 100 µM (inactive) | > 100 µM (inactive) | > 100 µM (inactive) | > 100 µM (inactive) | > 100 µM (inactive) | > 100 µM (inactive) |  | > 100 µM (inactive) | > 100 µM (inactive) |
| CCOC(=O)C(NC(=O)CC)(Nc1ccccc1F)C(F)(F)F (centres undefined) | > 100 µM (inactive) | > 100 µM (inactive) | > 100 µM | > 100 µM (inactive) | > 100 µM (inactive) | 86.9 µM (inactive) | > 100 µM (inactive) | > 100 µM (inactive) | > 100 µM (inactive) | 99.3 µM (inactive) | > 100 µM (inactive) | > 100 µM (inactive) | > 100 µM (inactive) | 68.2 µM (inactive) | 38.4 µM (inactive) | > 100 µM (inactive) | 42.2 µM (inactive) |  | > 100 µM (inactive) | > 100 µM (inactive) |
| COc1cc(/C=N/n2c(Cc3ccc(Cl)cc3)n[nH]c2=O)cc(OC)c1OC | > 100 µM (inactive) | 37.7 µM (inactive) | > 100 µM | 1.32 µM (inactive) |  | > 100 µM (inactive) | 50 µM (inactive) | 33.5 µM (inactive) |  | > 100 µM (inactive) | > 100 µM (inactive) |  | > 100 µM (inactive) |  | > 100 µM (inactive) |  | > 100 µM (inactive) | > 100 µM (inactive) |  | 44.8 µM (inactive) |
| CC(=O)c1cc2ccccc2oc1=O [3-ACETYLCOUMARIN] | > 100 µM (inactive) | > 100 µM (inactive) | > 100 µM | > 100 µM (inactive) | > 100 µM (inactive) | > 100 µM (inactive) | > 100 µM (inactive) | > 100 µM (inactive) | > 100 µM (inactive) | > 100 µM (inactive) | > 100 µM (inactive) | > 100 µM (inactive) | > 100 µM (inactive) | > 100 µM (inactive) |  | > 100 µM (inactive) |  | > 100 µM (inactive) | 48.8 µM (inactive) | > 100 µM (inactive) |
| NC(=O)N/N=C\c1ccccc1OCc1cccc(COc2ccccc2/C=N\NC(N)=O)n1 | > 100 µM (inactive) | 21.3 µM (inactive) | 64.1 µM | 13.2 µM (inactive) | 37.4 µM (inactive) | > 100 µM (inactive) | > 100 µM (inactive) | > 100 µM (inactive) | 64.4 µM (inactive) | 57.4 µM (inactive) | > 100 µM (inactive) | > 100 µM (inactive) | 17.1 µM (inactive) | > 100 µM (inactive) |  | 30.7 µM (inactive) | 19.1 µM (inactive) | 98.6 µM (inactive) | 27.2 µM (inactive) | 19.3 µM (inactive) |
| Oc1ccc2ccccc2c1/N=N/c1ccc(Cl)cc1 | > 100 µM (inactive) |  | > 100 µM | > 100 µM (inactive) | > 100 µM (inactive) | > 100 µM (inactive) | > 100 µM (inactive) |  | > 100 µM (inactive) | > 100 µM (inactive) | > 100 µM (inactive) | > 100 µM (inactive) | > 100 µM (inactive) | > 100 µM (inactive) | > 100 µM (inactive) | > 100 µM (inactive) | > 100 µM (inactive) |  | > 100 µM (inactive) |  |
| O=C(O)CC(Nc1ccccc1)C(=O)O (centres undefined) | > 100 µM (inactive) |  | > 100 µM | > 100 µM (inactive) | > 100 µM (inactive) | > 100 µM (inactive) | > 100 µM (inactive) | > 100 µM (inactive) | > 100 µM (inactive) | > 100 µM (inactive) | > 100 µM (inactive) | > 100 µM (inactive) | > 100 µM (inactive) | > 100 µM (inactive) | > 100 µM (inactive) | > 100 µM (inactive) | > 100 µM (inactive) | > 100 µM (inactive) | > 100 µM (inactive) | > 100 µM (inactive) |
